From DBAASP
Values after ≈ are worked out from the molar mass of the structure shown. Values joined by “and” are separate entries in the source; they are usually repeats but may differ in a detail not shown here. Identical values can stand only once. One block for each compound: values may come before it.

Tests used:
Assay in all cases: ≥ marks a high value that may be exact or a test limit, other limits are often not marked, values filed in µg/mL are converted to µM
[1] = test system: Staphylococcus aureus NCTC 10788
[2] = test system: Escherichia coli NCTC 10418
[3] = test system: Staphylococcus aureus ATCC 12493
[4] = test system: Candida albicans NCYC 1467
[5] = test system: Pseudomonas aeruginosa ATCC 27853
[6] = test system: Candida albicans NCPF 1467
[7] = test system: Bacillus subtilis CMCC 63501
[8] = test system: Escherichia coli ATCC 25922
[9] = test system: Staphylococcus aureus ATCC 43300
[10] = test system: Staphylococcus epidermidis ATCC 12228
[11] = test system: Salmonella typhimurium ATCC 7731
[12] = test system: Enterococcus faecalis ATCC 29212
[13] = test system: Staphylococcus aureus ATCC 29213
[14] = test system: Salmonella enterica subsp. enterica serovar Pullorum C79-13
[15] = test system: Escherichia coli UB1005
[16] = test system: Salmonella enterica subsp. enterica serovar Pullorum ATCC 7913
[17] = test system: Candida parapsilosis CGMCC 2.3989
[18] = test system: Candida krusei CGMCC 2.1857
[19] = test system: Salmonella enterica subsp. enterica serovar Typhimurium ATCC 14028
[20] = test system: Candida albicans
[21] = test system: Candida albicans CGMCC 2.2086
[22] = test system: Candida tropicalis CGMCC 2.1975
[23] = test system: Escherichia coli 1005
[24] = test system: Staphylococcus aureus ATCC 25923
[25] = test system: Escherichia coli D21
[26] = test system: Escherichia coli ML-35
[27] = test system: Bacillus megaterium Bm11
[28] = test system: Serratia marcescens ATCC 8100
[29] = test system: Staphylococcus aureus K147
[30] = test system: Staphylococcus epidermidis
[31] = test system: Pseudomonas aeruginosa H103
[32] = test system: Escherichia coli O111:B4
[33] = test system: Salmonella typhimurium C610
[34] = test system: Bacillus subtilis
[35] = test system: Enterococcus faecalis
[36] = test system: Staphylococcus aureus SAP 0017
[37] = test system: Escherichia coli K12 MG1655

MIC [1]: ≥ 512 µM | MIC [2]: ≥ 512 µM | MIC [3]: ≥ 512 µM | MIC [4]: ≥ 512 µM | MIC [5]: > 512 µM
SMILES: CC[C@H](C)[C@@H]1NC(=O)[C@H](CO)NC(=O)[C@H](CCCCN)NC(=O)[C@H]([C@@H](C)O)NC(=O)[C@H](Cc2c[nH]c3ccccc23)NC(=O)[C@@H](NC(=O)CNC(=O)[C@H](CCCN=C(N)N)NC(=O)[C@H](CC(C)C)NC(=O)[C@H](C)N)CSSC[C@@H](C(=O)N[C@@H](CCCCN)C(N)=O)NC(=O)[C@@H]2CCCN2C(=O)[C@H](CCCCN)NC(=O)[C@@H]2CCCN2C(=O)[C@@H]2CCCN2C1=O [ALRGCWTKSIPPKPCK]

MIC [1]: 1.64 µM (≈ 4 µg/mL) | MIC [2]: 6.55 µM (≈ 16 µg/mL) | MIC [3]: 6.55 µM (≈ 16 µg/mL) | MIC [6]: 1.64 µM (≈ 4 µg/mL) | MIC [5]: 26.2 µM (≈ 64 µg/mL)
SMILES: CC[C@H](C)[C@H](NC(=O)CN)C(=O)NCC(=O)NCC(=O)N[C@@H](C)C(=O)N[C@@H](CC(C)C)C(=O)N[C@@H](CC(C)C)C(=O)N[C@@H](CO)C(=O)N[C@@H](Cc1ccccc1)C(=O)NCC(=O)N[C@@H](CCCCN)C(=O)N[C@@H](CO)C(=O)N[C@@H](C)C(=O)N[C@@H](CC(C)C)C(=O)N[C@@H](CCCCN)C(=O)NCC(=O)N[C@@H](CC(C)C)C(=O)N[C@@H](C)C(=O)N[C@@H](CCCCN)C(=O)NCC(=O)N[C@@H](CC(C)C)C(=O)N[C@@H](C)C(=O)N[C@@H](CCC(=O)O)C(=O)N[C@@H](Cc1cnc[nH]1)C(=O)N[C@@H](Cc1ccccc1)C(N)=O [GIGGALLSFGKSALKGLAKGLAEHF]

MIC [7]: 16 µM (≈ 29.9 µg/mL) | MIC [8]: 8 µM (≈ 14.9 µg/mL) | MIC [9]: 32 µM (≈ 59.8 µg/mL) | MIC [10]: 32 µM (≈ 59.8 µg/mL) | MIC [11]: ≥ 64 µM | MIC [12]: 32 µM (≈ 59.8 µg/mL) | MIC [13]: 16 µM (≈ 29.9 µg/mL) | MIC [14]: 8 µM (≈ 14.9 µg/mL) | MIC [5]: 16 µM (≈ 29.9 µg/mL) | MIC [15]: 8 µM (≈ 14.9 µg/mL)
SMILES: CC[C@H](C)[C@H](N)C(=O)N[C@@H](Cc1cnc[nH]1)C(=O)N[C@@H](CCCCN)C(=O)N[C@@H](Cc1ccccc1)C(=O)N[C@@H](Cc1c[nH]c2ccccc12)C(=O)N[C@@H](CCCN=C(N)N)C(=O)NCC(=O)NCC(=O)N[C@@H](CCCN=C(N)N)C(=O)N[C@@H](Cc1c[nH]c2ccccc12)C(=O)N[C@@H](Cc1ccccc1)C(=O)N[C@@H](CCCCN)C(=O)N[C@@H](Cc1cnc[nH]1)C(=O)N[C@H](C(N)=O)[C@@H](C)CC [IHKFWRGGRWFKHI]

MIC [16]: ≥ 32 µM | MIC [8]: 32 µM and 64 µM | MIC [9]: 64 µM (≈ 77.3 µg/mL) | MIC [17]: ≥ 64 µM | MIC [18]: 16 µM (≈ 19.3 µg/mL) | MIC [19]: 64 µM (≈ 77.3 µg/mL) | MIC [10]: 64 µM (≈ 77.3 µg/mL) | MIC [20]: > 64 µM | MIC [21]: ≥ 64 µM | MIC [22]: 4 µM (≈ 4.83 µg/mL) | MIC [13]: 64 µM (≈ 77.3 µg/mL) | MIC [23]: 16 µM (≈ 19.3 µg/mL) | MIC [24]: > 64 µM
SMILES: CC[C@H](C)[C@H](N)C(=O)N[C@H](C(=O)N[C@@H](CCCN=C(N)N)C(=O)N[C@@H](CCCN=C(N)N)C(=O)N[C@H](C(=O)N[C@@H](CCCN=C(N)N)C(=O)N[C@@H](CCCN=C(N)N)C(=O)N[C@H](C(=O)N[C@H](C(N)=O)[C@@H](C)CC)[C@@H](C)CC)[C@@H](C)CC)[C@@H](C)CC [IIRRIRRII]

MIC [25]: 1 µM (≈ 1.83 µg/mL) | MIC [19]: 0.5 µM (≈ 0.914 µg/mL) | MIC [10]: > 64 µM | MIC [26]: 2 µM (≈ 3.65 µg/mL) | MIC [27]: 16 µM (≈ 29.2 µg/mL) | MIC [28]: 8 µM (≈ 14.6 µg/mL)
SMILES: CC(C)C[C@H](NC(=O)[C@H](Cc1ccc(O)cc1)NC(=O)[C@@H]1CCCN1C(=O)[C@@H]1CCCN1C(=O)[C@H](CCCN=C(N)N)NC(=O)[C@@H]1CCCN1C(=O)[C@H](CCCCN)NC(=O)[C@H](CCCCN)NC(=O)[C@@H](N)CCCCN)C(=O)N1CCC[C@H]1C(=O)N[C@@H](CCCN=C(N)N)C(=O)N1CCC[C@H]1C(=O)N[C@@H](CCCN=C(N)N)C(=O)N1CCC[C@H]1C(=O)N1CCC[C@H]1C(=O)O [KKKPRPPYLPRPRPP]

MIC [29]: 11.5 µM (≈ 32 µg/mL) | MIC [30]: 5.77 µM (≈ 16 µg/mL) | MIC [31]: 5.77 µM (≈ 16 µg/mL) | MIC [32]: 2.89 µM (≈ 8 µg/mL) | MIC [33]: 2.89 µM (≈ 8 µg/mL) | MIC [34]: 5.77 µM (≈ 16 µg/mL) | MIC [35]: ≥ 46.2 µM | MIC [36]: 11.5 µM (≈ 32 µg/mL)
SMILES: CC[C@H](C)[C@H](NC(=O)[C@H](CC(C)C)NC(=O)[C@H](C)NC(=O)[C@@H]1CCCN1C(=O)[C@H](CC(C)C)NC(=O)CNC(=O)[C@@H](NC(=O)[C@@H](NC(=O)[C@H](CC(C)C)NC(=O)[C@@H](NC(=O)[C@@H](NC(=O)[C@H](CC(C)C)NC(=O)[C@@H](NC(=O)[C@H](C)NC(=O)CNC(=O)[C@@H](NC(=O)CNC(=O)[C@H](CCCCN)NC(=O)[C@H](CCCCN)NC(=O)[C@H](CCCCN)NC(=O)[C@H](Cc1ccccc1)NC(=O)[C@H](CC(C)C)NC(=O)[C@H](CCCCN)NC(=O)[C@H](Cc1c[nH]c2ccccc12)NC(=O)[C@@H](N)CCCCN)[C@@H](C)O)C(C)C)[C@@H](C)O)C(C)C)[C@@H](C)O)[C@@H](C)O)C(=O)N[C@@H](CO)C(=O)O [KWKLFKKKGTGAVLTVLTTGLPALIS]

MIC [16]: 4 µM (≈ 7.54 µg/mL) | MIC [9]: 4 µM (≈ 7.54 µg/mL) | MIC [17]: 16 µM (≈ 30.2 µg/mL) | MIC [18]: 2 µM (≈ 3.77 µg/mL) | MIC [19]: 8 µM (≈ 15.1 µg/mL) | MIC [10]: 4 µM (≈ 7.54 µg/mL) | MIC [20]: 4 µM (≈ 7.54 µg/mL) | MIC [22]: 2 µM (≈ 3.77 µg/mL) | MIC [13]: 4 µM (≈ 7.54 µg/mL) | MIC [23]: 8 µM (≈ 15.1 µg/mL) | MIC [24]: 8 µM (≈ 15.1 µg/mL)
SMILES: NC(=O)[C@H](CCCN=C(N)N)NC(=O)[C@H](Cc1c[nH]c2ccccc12)NC(=O)[C@H](Cc1c[nH]c2ccccc12)NC(=O)[C@H](CCCN=C(N)N)NC(=O)[C@H](CCCN=C(N)N)NC(=O)[C@H](Cc1c[nH]c2ccccc12)NC(=O)[C@H](CCCN=C(N)N)NC(=O)[C@H](CCCN=C(N)N)NC(=O)[C@H](Cc1c[nH]c2ccccc12)NC(=O)[C@H](Cc1c[nH]c2ccccc12)NC(=O)[C@@H](N)CCCN=C(N)N [RWWRRWRRWWR]

MIC [37]: ≥ 63.6 µM
SMILES: CC(C)C[C@H](NC(=O)[C@H](Cc1ccccc1)NC(=O)[C@H](CCCCN)NC(=O)[C@@H](N)CO)C(=O)N[C@@H](CO)C(=O)N[C@@H](CCCCN)C(=O)N[C@@H](CCCCN)C(=O)N1CCC[C@H]1C(=O)N[C@@H](CCCCN)C(=O)N[C@@H](CCCCN)C(=O)N[C@@H](CC(C)C)C(=O)N[C@@H](Cc1ccccc1)C(=O)N[C@@H](Cc1c[nH]c2ccccc12)C(=O)N[C@@H](Cc1ccccc1)C(=O)N[C@@H](CCCN=C(N)N)C(=O)N[C@@H](C)C(=O)O [SKFLSKKPKKLFWFRA]
